Data reported in US20090175845A1, “METHODS FOR IDENTIFYING COMPOUNDS THAT MODULATE PHB DOMAIN PROTEIN ACTIVITY AND COMPOSITIONS THEREOF” (THE TRUSTEES OF COLUMBIA UNIVERSITY IN THE CITY OF NEW YORK, priority 2005, published 2009).

Key:
Podocin = target: T1, Podocin (Mus musculus, UniProt Q91X05); assay: Photoaffinity labeling with photoactivatable lipids in HEK 293T cells; assay type: binding; settings: Podocin expressed in HEK 293T cells, 16 hours, UV irradiation, autoradiography
T1 construct: expressed in transfected cells; host or cells: HEK 293T
T1 sequence (Q91X05 1-385): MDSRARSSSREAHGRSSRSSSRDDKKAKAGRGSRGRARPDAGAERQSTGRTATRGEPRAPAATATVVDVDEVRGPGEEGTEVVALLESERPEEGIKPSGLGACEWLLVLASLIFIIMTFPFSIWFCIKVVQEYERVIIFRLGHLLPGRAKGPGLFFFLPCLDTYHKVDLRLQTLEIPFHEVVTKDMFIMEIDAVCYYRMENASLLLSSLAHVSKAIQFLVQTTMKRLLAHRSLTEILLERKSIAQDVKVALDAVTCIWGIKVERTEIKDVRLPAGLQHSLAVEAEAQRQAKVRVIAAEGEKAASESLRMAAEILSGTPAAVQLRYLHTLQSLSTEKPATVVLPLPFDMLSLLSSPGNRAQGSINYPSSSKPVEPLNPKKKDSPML
Description: Photoaffinity labeling. Experiments were performed as described infra. For labeling with [3H]photocholesterol or [3H]photophosphatidylcholine, cells were supplemented with delipidized FCS and [3H]photocholesterol-MBCD complex or 10-azi-stearate and [3H]choline were added. After 16 hours, cells were washed three times with Ca/Mg-PBS (PBS containing 0.1 mM CaCl2 and 1 mM MgCl2) and irradiated for 30 minutes in Ca/Mg-PBS with a 100 W mercury lamp. For further analysis, cells were lysed on ice for 1 h in lysis buffer (50 mM Tris-HCl pH 7.4, 140 mM NaCl, 5 mM EDTA, 0.5 mM phenylmethylsulfonyl fluoride (PMSF), 1% Triton® X-100, 0.5% deoxycholate). The lysate was centrifuged for eight minutes at 10,000×g, and the supernatant was subjected to immunoprecipitation using an anti-FLAG monoclonal antibody. Aliquots of the starting extract, the supernatants after immunoprecipitation and the immunoprecipitates were separated by SDS-PAGE (12%) followed by blotting of the proteins on PVDF membrane. Radioactivity was detected by phosphoimaging (Fujifilm BAS-2500, Fuji Photo Film Co., Ltd, Japan) using a Tritium-sensitive BAS-TR2025 imaging plate (Fuji Photo Film Co., Ltd, Japan). From the same membrane, an immunoblot was performed using anti-FLAG antibodies.
Cell Culture Studies. Most cell studies used HEK 293T cells that were grown in DMEM as described [Huber et al. (2001) J. Biol. Chem. 18:18]. […]

[1] = target: T2, NusA fused to the cholesterol binding domain of Podocin (amino acids 119-284) (Mus musculus, UniProt Q91X05); assay: In vitro cholesterol interaction, scintillation counting of bead-bound recombinant protein
T2 construct: made in house; host or cells: E. coli
T2 sequence (Q91X05 119-284): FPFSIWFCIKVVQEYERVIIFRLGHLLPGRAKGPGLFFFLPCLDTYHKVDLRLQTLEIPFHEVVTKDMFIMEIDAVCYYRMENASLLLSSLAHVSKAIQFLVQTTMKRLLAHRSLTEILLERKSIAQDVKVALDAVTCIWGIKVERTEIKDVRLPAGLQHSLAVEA
Description: In vitro cholesterol interaction. Podocin truncations were cloned into various bacterial expression vectors and tested for the expression of soluble recombinant fusion proteins. […] Purity of the preparation was confirmed on Coomassie gels. For in vitro cholesterol interaction assays 2-20 μg of affinity purified Podocin protein was bound to 30 μl of Ni+ beads and incubated with 0.1 μCi [^3H]cholesterol (Amersham) complexed with low amounts of cyclodextrine. After binding for 10 minutes at 37° C. beads were washed extensively and counted in a scintillation counter. To confirm equal loading of the beads aliquots of the bound protein were run on Coomassie gels. Competition experiments were performed with 1 μg of affinity purified Podocin protein fused to NusA or NusA alone as a control. Samples were incubated with radioactively labeled cholesterol in the absence (no cold competition) or presence (cold competition) of varying amounts of […]. Cold competition was approximately 100-fold excess of cold cholesterol. The sample was washed extensively and subjected to scintillation counting.
The importance of different regions of Podocin for cholesterol binding was tested by fusing them to the extracellular and transmembrane domains of Nephrin. […]

CC(C)CCC[C@@H](C)[C@H]1CC[C@H]2[C@@H]3CC=C4C[C@@H](O)CC[C@]4(C)[C@H]3CC[C@]12C [cholesterol]
binding of photoactivatable lipid to Podocin (Podocin): bound | direct binding of [3H]cholesterol in vitro ([1]; Podocin fragments produced in E. coli, 10 minutes at 37° C.): sufficient for cholesterol binding | cold competition of [3H]cholesterol binding ([1]; approximately 100-fold excess of unlabeled cholesterol): competed
